Data: patent US4477440A, “Renin inhibitors containing an n-terminal disulfide cycle” (Merck & Co., Inc., priority 1983, dated 1984)
Positions of bridges follow the written chain, without caps; N, C: chain ends. Non-standard residues stand in square brackets, D forms with d. Residues, ends and D or L forms follow the SMILES beside them. Sta = CC(C)C[C@H](N)[C@@H](O)CC(=O)O; hCys = N[C@@H](CCS)C(=O)O

Key:
hog renin = conditions: after injection of hog renin into nephrectomized rats; cited from earlier work
human kidney renin = target: T1, human kidney renin (Homo sapiens, UniProt P00797); assay: Human renin inhibition; assay type: biochemical; conditions: purified human kidney renin; dissociation constant of enzyme-inhibitor complex
T1 construct: human kidney renin purified as described in Bangham; from tissue; host or cells: human kidney
T1 sequence (P00797 67-406): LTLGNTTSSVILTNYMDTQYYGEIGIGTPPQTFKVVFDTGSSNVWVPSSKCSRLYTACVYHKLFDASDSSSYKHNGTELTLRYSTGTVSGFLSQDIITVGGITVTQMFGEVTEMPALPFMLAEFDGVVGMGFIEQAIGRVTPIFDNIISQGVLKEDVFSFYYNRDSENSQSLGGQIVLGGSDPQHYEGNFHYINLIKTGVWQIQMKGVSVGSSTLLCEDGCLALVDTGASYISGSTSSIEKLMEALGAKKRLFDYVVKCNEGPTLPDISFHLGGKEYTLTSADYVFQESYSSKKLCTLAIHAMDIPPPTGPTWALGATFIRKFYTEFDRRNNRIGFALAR
Method: An assay was carried out in order to determine the inhibitory potency of the peptides of the present invention. The assay measured the inhibition of human kidney renin purified as described in Bangham, D. R., Robertson, I., Robinson, J. I. S., Robinson, C. J., and Tree, M., Clinical Science and Molecular Medicine, 48 (Supp. 2): 136s-159s (1975), and further purified by affinity chromatography on pepstatin-aminohexyl-Sepharase as described in Poe, M., Wu., J. K., Florance, J. R., Radkey, J. A., Bennett, C. D., and Hoogsteen, K., J. Biol. Chem. (1982, in press). The assay was also in accordance with Poe et al. cited above. Results are expressed as KI values, which refer to the dissociation constant of the inhibited enzyme-inhibitor complex. This KI value was obtained as described above. Pepstatin was used as an active control.

In the case of pepstatin, the “blood pressure in vivo” value (hog renin) is listed as “reduce blood pressure in vivo”.
Molecule `COC(=O)[C@H](Cc1ccccc1)NC(=O)[C@H](CC(C)C)NC(=O)C[C@H](O)[C@H](CC(C)C)NC(=O)[C@@H]1CCSSCC[C@H](N)C(=O)N2CCC[C@H]2C(=O)N[C@@H](Cc2ccccc2)C(=O)N1` (H-[hCys]PF[hCys][Sta]LF-OMe; disulfide 1-4) has a Ki (human kidney renin) of 410 nM.
